The source of these data is patent US20220194951A1, “DIHYDROPYRIMIDINE COMPOUND AND APPLICATION THEREOF AS DRUG” (SUNSHINE LAKE PHARMA CO., LTD., priority 2019, published 2022).

Data set [1] is described as follows: PK test on cynomolgus monkeys. The format is in vivo. The conditions noted are these: male, cynomolgus monkey, plasma; for bioavailability: read-out: F (absolute bioavailability). On the procedure: (4) PK Test on Cynomolgus Monkeys:
The PK test method of the compound in vivo of cynomolgus monkeys (purchased from Guangdong Chunsheng Biotechnology Development Co., Ltd., weight 3-6 kg, male, ages of 4-6 years, 3 per oral group, 3 per intravenous injection group):
The cynomolgus monkeys were administered intragastrically with the test compound at doses of 2.5 mg/kg or 5 mg/kg or administered intravenously with the test compound at doses of 0.5 mg/kg or 1 mg/kg.
Blood samples were taken at 0.083, 0.25, 0.5, 1, 2, 4, 6, 8 and 24 hours from vein after the administration, and collected in anticoagulation tube with EDTA-K2. After liquid-liquid extraction, the plasma sample was quantitatively analyzed on a triple quadrupole tandem mass spectrometer using multiple reactive ion monitoring (MRM). Pharmacokinetic parameters were calculated using a noncompartmental method by WinNonLin 6.3 software.

Data set [2] deals with HBV. Briefly: Inhibition of HBV DNA replication in HepAD38 cells (qPCR method). The format is cell-based. The conditions noted are these: Hepatitis B virus, secreted virus DNA by qPCR. The source says:
Test 1: Evaluation of HepAD38 Cells on the Compound's Inhibitory Activity of HBV DNA Replication (qPCR Method)
HBV Cell Strain and Culture Conditions
HepAD38: Ladner et al. (Ladner, Otto et al. 1997) ligated the tetracycline-sensitive cytomegalovirus CMV promoter to the PBR322 plasmid and ligated it with the ayw subtype HBV DNA into the ptetHBV plasmid, and HepG2 cells were transfected to obtain the HepAD38 cell strain. Due to the destruction of the pre-C region gene, the yield of HBV DNA was about 11 times higher than that of HepG2.2.15 cells. Tetracycline could be used to regulate HBV replication, and the time required for culture was only half of that of HepG2.2.15 cells. It was suitable for studying the HBV replication process and replication intermediates and screening of anti-HBV drugs. HepAD38 was cultured in DMEM/F-12K medium containing 10% FBS and 1% double antibody (it also contained Tetracycline at a final concentration of 300 ng/ml and G418 at a final concentration of 400 μg/ml).
The virus particle DNA secreted by HepAD38 cells could be quantified by qPCR method, and thus the influence of the compound on virus replication could be detected.
(§1) Test of Anti HBV Activity In Vitro
After resuscitating the HepAD38 with a small number of passages, after the cells were in good condition, Tetracycline (final concentration of 300 ng/ml) and G418 (final concentration of 400 μg/ml) were added into the medium. […] After the cells were full, they were digested, counted, and diluted with DMEM/F-12K medium containing 10% FBS (containing Tetracycline at a final concentration of 300 ng/ml and G418 at a final concentration of 400 μg/ml, 1% double antibody) to a cell suspension of concentration of 2×10^5/mL. The cell suspension was seeded in a 96-well plate (the whole plate was covered) at 100 μL per well, and incubated at 37° C. in a constant temperature incubator with 5% CO2 for 24 h.
Compound preparation and cell treatment in antiviral experiments: the compound was dissolved with DMSO to 20 mM. Furthermore, the compound was diluted with DMSO to 800 μM, and then 8 dilutions at 4 fold were performed, the highest concentration was 800 μM. 1 μL of serially diluted compound was added to each well of the above-mentioned cell plate. The highest final concentration of the experiment was 4 μM (200 fold dilution). TDF (tenofovir disoproxil fumarate, Selleck, Cat S1400) was used as a positive control compound with a highest concentration of 4 μM. 1 μL of DMSO was added to the negative control wells to a final concentration of 0.5%.
The one-step hepatitis B virus nucleic acid quantitative determination kit for 48 people (PCR-fluorescent probe method) of Shengxiang Biotechnology was used for QPCR. 2.5 μL of supernatant was absorbed for Q-PCR, and the kit reagents were vortexed and mixed well after the reagents were melted before use. After centrifugation, the enzyme mixture was placed on ice for later use, and it was ensured that the subsequent steps were completed on the ice. 2.5 μL of sample release agent and 2.5 μL of test sample supernatant (experimental group, control group, standard curve group) were added to each well of the Q-PCR plate. After QPCR reaction, the copy number of virus DNA in each well was obtained. Graphpad Prism 5 software was used to process the concentration-virus copy number, and the EC50 of the compound against virus replication was calculated through a four-parameter nonlinear regression model.

For data set [3], the system named is HBV. Briefly: Inhibition of HBV DNA replication in HepG2.2.15 cells (qPCR). It counts as cell-based. The conditions noted are these: Hepatitis B virus, secreted virus DNA by qPCR. On the procedure: Test 2: Evaluation of HepG2.2.15 Cells on the Compound's Inhibitory Activity of HBV DNA Replication
HBV Cell Line and Culture Conditions
The chromosomes of HepG2.2.15 cells (SELLS, PNAS, 1987 and SELLS, JV, 1988) integrated a complete HBV genome and stably expressed viral RNA and viral proteins. HepG2.2.15 cells could secrete mature hepatitis B virus particles, HBsAg and HBeAg into the culture medium. HepG2.2.15 cells were cultured in a DMEM medium containing 10% fetal bovine serum, 100 U/mL penicillin, 100 U/mL streptomycin, 1% non-essential amino acids, 1 mM sodium pyruvate and 300 µg/mL G418.
The virus particle DNA secreted by HepG2.2.15 cells could be quantified by qPCR method, and the influence of the compound on virus replication could be detected.
as §1
8,000 HepG 2.2.15 cells per well were seeded into a 96-well cell culture plate, the plate was cultured at 37° C. and 5% CO2 for 3 days until the cells grew to full wells. Old liquid medium was discard and replaced with 200 μL of new medium (5% FBS) on day 0. […]
Primers: HBV-For-202, […]; HBV-Rev-315, […]. […] Graphpad Prism 5 software was used to process the concentration-virus copy number, and the EC50 of the compound against virus replication was calculated through a four-parameter nonlinear regression model.

The structures appear in SMILES notation.

As for `COC(=O)C1=C(CN2CCN3C(=O)N(c4ccc(C(=O)O)cc4)C[C@@H]3C2)NC(c2nccs2)=N[C@H]1c1ccc(F)cc1Cl` [Control compound, 4-((S)-7-(((R)-6-(2-chloro-4-fluorophenyl)-5-(methoxycarbonyl)-2-(thiazol-2-yl)-3,6-dihydropyrimidin-4-yl)methyl)-3-oxohexahydroimidazo[1,5-a]pyrazine-2(3H)-yl)benzoic acid, reference compound], in data set [1] (iv, 0.5 mg/kg), the AUC(0-t) turned out to be 720 ng·h/mL and the Tmax was determined as 4.98 min. Further, in data set [1] (po, 2.5 mg/kg), the AUC(0-t) was 647 ng·h/mL, the Tmax was determined as 90 min and the bioavailability is 23.6%.
On to `COC(=O)C1=C(CN2CCN3C(=O)N(c4ccc(C(=O)O)cc4F)C[C@@H]3C2)NC(c2nccs2)=N[C@H]1c1ccc(F)cc1Cl` [Example 1], for which, in the data set on HBV [2], the EC50 stood at 0.02 µM.
For the compound `COC(=O)C1=C(CN2CCN3C(=O)N(c4ccc(C(=O)O)c(F)c4)C[C@@H]3C2)NC(c2nccs2)=N[C@H]1c1ccc(F)cc1Cl` [Example 2], in data set [1] (iv, 0.5 mg/kg), the AUC(0-t) stood at 1020 ng·h/mL and the time of peak concentration (Tmax) is 4.98 min. Also, in data set [1] (po, 2.5 mg/kg), the exposure AUC(0-t) was 3380 ng·h/mL, the Tmax was 30 min and the bioavailability stood at 64.8%. For the same compound, a half-maximal effect in the data set on HBV [3] (EC50) was put at 0.004 µM. For the same compound, a half-maximal effect in the data set with HBV [2] (EC50) was put at 0.01 µM.
`CCOC(=O)C1=C(CN2CCN3C(=O)N(c4ccc(C(=O)O)cc4F)C[C@@H]3C2)NC(c2nccs2)=N[C@H]1c1ccc(F)cc1Br` [Example 3] returned a concentration giving a half-maximal response (EC50) with HBV [2] of 0.031 µM. This counts as double-digit nanomolar.
On the same count and under the same terms, to `CCOC(=O)C1=C(CN2CCN3C(=O)N(c4ccc(C(=O)O)c(F)c4)C[C@@H]3C2)NC(c2nccs2)=N[C@H]1c1ccc(F)cc1Br` [Example 4] belongs 0.016 µM; to `CCOC(=O)C1=C(CN2CCN3C(=O)N(c4ccc(C(=O)O)c(F)c4)C[C@@H]3C2)NC(c2nccs2)=N[C@H]1c1ccc(F)cc1Cl` [Example 6], 0.015 µM; to `CCOC(=O)C1=C(CN2CCN3C(=O)N(c4ccc(C(=O)O)cc4F)C[C@@H]3C2)NC(c2nccs2)=N[C@H]1c1ccc(Cl)cc1Cl` [Example 7], 0.016 µM.
The same measure, in the same setting: the result for `CCOC(=O)C1=C(CN2CCN3C(=O)N(c4ccc(C(=O)O)c(F)c4)C[C@@H]3C2)NC(c2nccs2)=N[C@H]1c1ccc(Cl)cc1Cl` [Example 8] reads 0.013 µM.
